We go through 14 compounds from patent publication US20260216115A1, “TRETINOIN-CONTAINING COMPOSITION, PREPARATION METHOD AND USE THEREOF” (NANJING INDETEK LABORATORY CO., LTD., priority 2022, published 2026).

The nature of data set [1]: Complex formation at different molar ratios, state at room temperature. It is filed as physicochemical. The method, then: Referring to the preparation process in 1.2.1, complexes were prepared using tretinoin and diethanolamine at different ratios (as shown in the table below).
Referring to the preparation process in 1.2 in Example 1, diethanolamine was replaced with triethanolamine, and complexes were prepared using tretinoin and triethanolamine at different ratios (as shown in the table below).

A short description of data set [2]: Water solubility/water dilution stability of tretinoin complexes. It is filed as physicochemical. The conditions noted are these: water added until the solution appeared turbid. As for the experimental part:
Weighing was performed, and calculation was performed to obtain the limiting water content of the complexes.

Data set [3] in a line: Differential scanning calorimetry (DSC, mDSC). Type of data set: physicochemical.
Data set [4] in a line: Liquid nitrogen freezing test. It is filed as physicochemical. As to conditions: frozen about 1 min in liquid nitrogen, rewarmed to room temperature (about 22° C.). The method, then: After freezing for about 1 min, the sample was taken out, yielding a reddish-brown transparent solid (hard and brittle). […] The experimental process was as follows: freezing with the spoon, fragmenting, and then melting

Data set [5] can be described thus: Solubility of the complex in different medium systems (oily mediums). It is filed as physicochemical. The text has this: 6.1 Study on Solubility of the Tretinoin-Alcoholamine Compound Complex in Different Medium Systems
Data set [6] is described as follows: Dynamic moisture sorption (DVS) with PLM before and after. Type of data set: physicochemical.
Data set [7] can be described thus: Anti-solvent addition test. Type of data set: physicochemical. The conditions noted are these: room temperature, about 4 days. As for the experimental part:
The corresponding volume of good solvent was added to an appropriate amount of 2 [DEA][RA] to obtain a clear solution. If there were two corresponding anti-solvents, the clear solution was divided into two parts. At room temperature (about 22° C.), the anti-solvent was slowly added to the clear solution with stirring until solid precipitation was observed (the maximum volume of anti-solvent added was 1.5 mL). If the solid precipitation was observed, the addition of anti-solvent was stopped. After about 4 days of stirring at room temperature, a clear solution was obtained or oiling-out phenomenon was observed, without solid form substance obtained.

Data set [8] can be described thus: Crystallization induction: cooling test. It is filed as physicochemical. The conditions noted are these: 3 days. As for the experimental part: About 40 mg of 2 [DEA][RA] was dissolved in the respective solvent at 50° C., a clear solution was obtained and divided equally in 2 groups. After cooling according to the respective procedure, and equilibrating at low temperature for 3 days, no solid form substance was obtained.

A short description of data set [9]: Compatibility of gel matrix and complex. Type of data set: physicochemical. The conditions noted are these: 0.17% (0.1% in terms of RA) added to the Carbopol 980 gel matrix.
The conditions of data set [10]: 2020 edition of Chinese Pharmacopoeia (Part II); cited from earlier work.
Where [11] appears, read: tretinoin-diethanolamine complexes, molar ratio [DEA]:[RA] 2:1 to 10:1.
Where [12] appears, read: tretinoin-triethanolamine complexes, molar ratio TEA:RA 7:1 to 10:1.

Each structure is given as a SMILES string.

With `CC1=C(/C=C/C(C)=C/C=C/C(C)=C/C(=O)O)C(C)(C)CCC1.CC1=C(/C=C/C(C)=C/C=C/C(C)=C/C(=O)O)C(C)(C)CCC1.OCCNCCO.OCCNCCO.OCCNCCO.OCCNCCO.OCCNCCO` [2.5[DEA][RA]], the “State at room temperature” value in [1] (setting [11]) is listed as “Reddish-brown clear liquid”. For the same compound, the “Maximum water content (water dilution stability)” value (from here on “Maximum water content”) in data set [2] is on record as 92.5%.

Regarding `CC1=C(/C=C/C(C)=C/C=C/C(C)=C/C(=O)O)C(C)(C)CCC1.OCCNCCO.OCCNCCO` [2[DEA][RA]], the “State at room temperature” value in [1] (setting [11]) is “Reddish-brown clear liquid”. Besides, in data set [3] (−25° C. to 25° C.), the “mDSC glass transition temperature” value is given as “no glass transition temperature is observed”. For the same compound, the “DSC exothermic or endothermic signals” value in data set [3] (−25° C. to 40° C.) is “no exothermic or endothermic signals”. Further, the “Liquid nitrogen freezing test result upon rewarming” value in data set [4] is reported as “the sample melted immediately”. In [2], the “Maximum water content” value is listed as 91.4%. Moreover, the “Solubility in oily medium” value in data set [5] (Isopropyl myristate), in data set [5] (Laurocapram), in [5] (Medium-chain triglyceride) and in data set [5] (Soybean oil) was “Insoluble” each time. For the same compound, in data set [6] (25° C., 0% RH-95% RH-0% RH), the “Hygroscopicity (DVS)” value is recorded as “certain hygroscopic properties”. Further, the “Crystalline particles by PLM before and after DVS” value in [6] (room temperature) is reported as “no crystalline particles”. Moreover, the “Anti-solvent addition test results” value in data set [7] (test-A, good solvent DMSO, anti-solvent ACN 1.5 mL) is listed as “Clear”; in data set [7] (test-B1, good solvent n-propanol, anti-solvent ACN 1.5 mL), “Clear”; in data set [7] (test-B2, good solvent n-propanol, anti-solvent n-heptane 1.5 mL), “Clear”; in data set [7] (test-D1, good solvent THF, anti-solvent ACN 1.5 mL), “Clear”; in data set [7] (test-E1, good solvent IPA, anti-solvent ACN 1.5 mL) it was “Clear”. Besides, the Cooling test results in [8] (test-A1, n-propanol, 50° C.→5° C.) is “Clear”; in data set [8] (test-A2, n-propanol, 50° C.→−20° C.), “Clear”; in data set [8] (test-C1, 1,4-dioxane, 50° C.→5° C.), “Clear”; in [8] (test-C2, 1,4-dioxane, 50° C.→−20° C., *melting immediately upon taking out), “Frozen, yellow opaque*”; in data set [8] (test-D1, DMSO, 50° C.→5° C.) it was “Clear”. Also, in data set [9], the “Compatibility of complex with gel matrix” value is recorded as “precipitation of yellow solids”.

With `CC1=C(/C=C/C(C)=C/C=C/C(C)=C/C(=O)O)C(C)(C)CCC1.OCCNCCO.OCCNCCO.OCCNCCO` [3[DEA][RA]], the “State at room temperature” value in data set [1] (setting [11]) is “Reddish-brown clear liquid”. For the same compound, the “Maximum water content” value in [2] is on record as 93.7%.

Consider `CC1=C(/C=C/C(C)=C/C=C/C(C)=C/C(=O)O)C(C)(C)CCC1.OCCNCCO.OCCNCCO.OCCNCCO.OCCNCCO` [4[DEA][RA]], for which, in [1] (setting [11]), the “State at room temperature” value was “Reddish-brown clear liquid”. For the same compound, the “Maximum water content” value in [2] was 94.1%.

As for `CC1=C(/C=C/C(C)=C/C=C/C(C)=C/C(=O)O)C(C)(C)CCC1.OCCNCCO.OCCNCCO.OCCNCCO.OCCNCCO.OCCNCCO` [5[DEA][RA]], the “State at room temperature” value in [1] (setting [11]) was “Reddish-brown clear liquid”.

On to `CC1=C(/C=C/C(C)=C/C=C/C(C)=C/C(=O)O)C(C)(C)CCC1.OCCNCCO.OCCNCCO.OCCNCCO.OCCNCCO.OCCNCCO.OCCNCCO` [6[DEA][RA]], for which the “State at room temperature” value in data set [1] (setting [11]) is on record as “Reddish-brown clear liquid”.

Take `CC1=C(/C=C/C(C)=C/C=C/C(C)=C/C(=O)O)C(C)(C)CCC1.OCCNCCO.OCCNCCO.OCCNCCO.OCCNCCO.OCCNCCO.OCCNCCO.OCCNCCO` [7[DEA][RA]]: in data set [1] (setting [11]), the “State at room temperature” value was “Reddish-brown clear liquid”.

Turning to `CC1=C(/C=C/C(C)=C/C=C/C(C)=C/C(=O)O)C(C)(C)CCC1.OCCNCCO.OCCNCCO.OCCNCCO.OCCNCCO.OCCNCCO.OCCNCCO.OCCNCCO.OCCNCCO` [8[DEA][RA]], the “State at room temperature” value in data set [1] (setting [11]) is given as “Reddish-brown clear liquid”.

On to `CC1=C(/C=C/C(C)=C/C=C/C(C)=C/C(=O)O)C(C)(C)CCC1.OCCN(CCO)CCO.OCCN(CCO)CCO.OCCN(CCO)CCO.OCCN(CCO)CCO.OCCN(CCO)CCO.OCCN(CCO)CCO.OCCN(CCO)CCO.OCCN(CCO)CCO` [8[TEA][RA]], for which the “State at room temperature” value is given as “Reddish-brown clear liquid” in data set [1] (setting [12]) and “reddish-brown transparent liquid” in data set [1] (tretinoin-triethanolamine complexes, molar ratio TEA:RA 7:1 to 10:1, listed as 8 [TEA][RA]).

With `CC1=C(/C=C/C(C)=C/C=C/C(C)=C/C(=O)O)C(C)(C)CCC1.OCCNCCO.OCCNCCO.OCCNCCO.OCCNCCO.OCCNCCO.OCCNCCO.OCCNCCO.OCCNCCO.OCCNCCO` [9[DEA][RA]], the “State at room temperature” value in [1] (setting [11]) was “Reddish-brown clear liquid”.

`CC1=C(/C=C/C(C)=C/C=C/C(C)=C/C(=O)O)C(C)(C)CCC1.OCCN(CCO)CCO.OCCN(CCO)CCO.OCCN(CCO)CCO.OCCN(CCO)CCO.OCCN(CCO)CCO.OCCN(CCO)CCO.OCCN(CCO)CCO.OCCN(CCO)CCO.OCCN(CCO)CCO` [9[TEA][RA]]: in data set [1] (setting [12]), the “State at room temperature” value was “Reddish-brown clear liquid”.

For `CC1=C(/C=C/C(C)=C/C=C/C(C)=C/C(=O)O)C(C)(C)CCC1.OCCNCCO.OCCNCCO.OCCNCCO.OCCNCCO.OCCNCCO.OCCNCCO.OCCNCCO.OCCNCCO.OCCNCCO.OCCNCCO` [10[DEA][RA]], the “State at room temperature” value in [1] (setting [11]) was “Reddish-brown clear liquid”.

For `CC1=C(/C=C/C(C)=C/C=C/C(C)=C/C(=O)O)C(C)(C)CCC1.OCCN(CCO)CCO.OCCN(CCO)CCO.OCCN(CCO)CCO.OCCN(CCO)CCO.OCCN(CCO)CCO.OCCN(CCO)CCO.OCCN(CCO)CCO.OCCN(CCO)CCO.OCCN(CCO)CCO.OCCN(CCO)CCO` [10[TEA][RA]], the “State at room temperature” value in [1] (setting [12]) is listed as “Reddish-brown clear liquid”.

`CC1=C(/C=C/C(C)=C/C=C/C(C)=C/C(=O)O)C(C)(C)CCC1` [tretinoin]: the “Solubility in water” value in data set [10] is recorded as “extremely insoluble in water”.
